pIC50: −log10 of the molar value.
Tested on: OVCAR-3
Assay: OVCAR3 CTG assay
Format: cell-based
Conditions: CellTiter-Glo, 6 days incubation
From the text: Example B2: OVCAR3 CTG Assay
• a) Preparation of complete medium: Added FBS and appropriate additives according to the information sheet provided by the vendor. Mix gently. • b) Checked the cell name and complete medium and passage number marked on the flask. For adherent cell lines, refer to c to k. For suspension cell lines, refer to g to k. • c) Removed and discarded culture medium using a vacuum pump. • d) Briefly rinsed the cell layer with 0.25% (w/v) Trypsin-0.038% (w/v) EDTA solution to remove all traces of serum that contains trypsin inhibitor. • e) Added 3.0 ml of Trypsin-EDTA solution to flask and observed cells under an inverted microscope until cell layer is dispersed. • f) Added 9.0 ml of complete growth medium and aspirated cells by gently pipetting. • g) Transfered the cell suspension to a centrifuge tube and centrifuged at 1000 rpm for 4 minutes. • h) Discarded the supernatant using a vacuum pump. • i) Added appropriate volume of complete medium. Suspended the cell pellet by gently pipetting. • j) Counted the cell numbers with Vi-cell XR and adjusted cells to appropriate density. • k) Added 190 μL of cell suspension to 96-well opaque-walled clear bottom plates according to the planned plate layout and placed the plates in the CO2 incubator overnight.
2) Compound Stock Preparation:
• a) Plate preparation of testing articles:
The compounds were dissolved in DMSO to prepare 10 mM stock solution. The start working concentration (2 mM) was prepared with DMSO.
b) Staurosporine Plate Preparation:
0.4 mM Staurosporine was prepared in DMSO at working concentration.
The 20× compound containing medium was prepared according to the plate map. 10 μL of 20× compound containing medium was added into each well of the assay plates. Centrifuged at 1000 rpm for 1 minute. The total dilution was 200-fold.
3) Cells were Incubated with the Compounds for 6 Days at 5% CO2, 37° C.
Assay Measurement for CTG Assay
1) Preparation of Reagents
• a) Thawed the CellTiter-Glo buffer and equilibrated to room temperature prior to use. • b) Equilibrated the lyophilized CellTiter-Glo substrate to room temperature prior to use. • c) Transfered the appropriate volume of CellTiter-Glo buffer into the amber bottle containing CellTiter-Glo substrate to reconstitute the lyophilized enzyme/substrate mixture. This formed the CellTiter-Glo reagent. • d) Mixed by gently vortexing, swirling or by inverting the contents to obtain a homogeneous solution. The CellTiter-Glo substrate went into solution easily in less than one minute.
• a) Observed the cell morphology under an inverted microscope after corresponding treatment. • b) Equilibrated the plate and its contents to room temperature for approximately 30 minutes. • c) Added 100 μL of CellTiter-Glo reagent to the assay plate by Multidrop Combi instrument. • d) Mixed contents for 10 minutes on an orbital shaker to induce cell lysis. • e) Allowed the plate to incubate at room temperature for 10 minutes to stabilize luminescent signal. • f) Pasted the clear bottom with white back seal and record luminescence with Envision. The settings should be: Luminescence, measurement time 0.1 s.

pIC50 (Homo sapiens, OVCAR-3, 144 h) | pIC50 | Structure (SMILES)
7.00 to 8.00 | – | C[C@@H]1C/C=C/C2(C(F)(F)F)CCN(CC2)c2cc(NS(=O)(=O)CCO)ccc2C(=O)Nc2cccc(n2)NC1 [EX85-A]
7.00 to 8.00 | – | O=C1Nc2cccc(n2)N2CCO[C@H](COCC3(C(F)(F)F)CCN(CC3)c3cc(NS(=O)(=O)CCO)ncc31)C2 [EX92-A]
6.00 to 7.00 | – | CN1CCCOCC2(C(F)(F)F)CCN(CC2)c2cc(NS(=O)(=O)CCO)ccc2C(=O)Nc2cc(Cl)nc1n2 [EX94]
7.00 to 8.00 | – | Cc1cc2nc(n1)N(C)CCCOCC1(C(F)(F)F)CCN(CC1)c1cc(S(=O)(=O)NC(C)(C)C)ccc1C(=O)N2 [EX30]
7.00 to 8.00 | – | O=C1Nc2cccc(n2)NCC(F)(F)COCC2(C(F)(F)F)CCN(CC2)c2cc(NS(=O)(=O)CCO)ccc21 [EX109]
7.00 to 8.00 | – | O=C1Nc2cccc(n2)NC/C=C\COCC2(C(F)(F)F)CCN(CC2)c2cc(NS(=O)(=O)CCO)ccc21 [EX66]
6.00 to 7.00 | – | CN1CC(F)(F)COCC2(C(F)(F)F)CCN(CC2)c2cc(NS(=O)(=O)CCO)ccc2C(=O)Nc2cccc1n2 [EX108]
7.00 to 8.00 | – | CN1CCCCCC2(C(F)(F)F)CCN(CC2)c2cc(NS(=O)(=O)CCO)ncc2C(=O)Nc2cccc1n2 [EX89]
7.00 to 8.00 | – | CN1CCC/C=C/C2(C(F)(F)F)CCN(CC2)c2cc(NS(=O)(=O)CCO)ccc2C(=O)Nc2ccnc1n2 [EX91]
7.00 to 8.00 | – | CO[C@H]1CNc2nc(C)cc(n2)NC(=O)c2ccc(NS(=O)(=O)CCO)cc2N2CCC(C(F)(F)F)(CC2)COC1 [EX46-A]
6.00 to 7.00 | – | CN1CCCOCC2(C(F)(F)F)CCN(CC2)c2cc(NS(=O)(=O)CCO)ccc2C(=O)Nc2cncc1n2 [EX75]
> 8.00 | – | C[C@@H]1CCCC2(C(F)(F)F)CCN(CC2)c2cc(NS(=O)(=O)CCO)c(F)cc2C(=O)Nc2cccc(n2)NC1 [EX105-A]
7.00 to 8.00 | – | C[C@@H]1CNc2nc(ccc2F)NC(=O)c2ccc(NS(=O)(=O)CCO)cc2N2CCC(C(F)(F)F)(CC2)COC1 [EX76-B]
6.00 to 7.00 | – | Cc1cc2nc(n1)N1CCO[C@H](CCCC3(C(F)(F)F)CCN(CC3)c3cc(NS(=O)(=O)CCO)ccc3C(=O)N2)C1 [EX111-A]
7.00 to 8.00 | – | CO[C@@H]1CNc2nc(C)cc(n2)NC(=O)c2ccc(NS(=O)(=O)CCO)cc2N2CCC(C(F)(F)F)(CC2)COC1 [EX46-B]
7.00 to 8.00 | – | O=C1Nc2cccc(n2)NCC2(CC2)COCC2(C(F)(F)F)CCN(CC2)c2cc(NS(=O)(=O)CCO)ccc21 [EX68]
7.00 to 8.00 | – | CN1CCCOCC2(C(F)(F)F)CCN(CC2)c2cc(NS(=O)(=O)CCO)ccc2C(=O)Nc2cccc1n2 [EX62]
> 8.00 | – | C[C@H]1CCCC2(C(F)(F)F)CCN(CC2)c2cc(NS(=O)(=O)CCO)ccc2C(=O)Nc2cccc(n2)NC1 [EX79-B]
> 8.00 | – | C[C@H]1CNc2nc(ccc2F)NC(=O)c2ccc(NS(=O)(=O)CCO)cc2N2CCC(C(F)(F)F)(CC2)COC1 [EX76-A]

pIC50 (Homo sapiens, OVCAR-3, 144 h) | pIC50 | Structure (SMILES)
– | 7.00 to 8.00 | Cc1cc2nc(n1)NC1CC(C1)OCC1(C(F)(F)F)CCN(CC1)c1cc(NS(=O)(=O)CCO)ccc1C(=O)N2 [EX54]
> 8.00 | – | Cc1cc2nc(n1)N1CCO[C@H](COCC3(C(F)(F)F)CCN(CC3)c3cc(NS(=O)(=O)CCO)ccc3C(=O)N2)C1 [EX96-A]
7.00 to 8.00 | – | Cc1cc2nc(n1)NC[C@@H](C(F)(F)F)COCC1(C)CCN(CC1)c1cc(NS(=O)(=O)CCO)ccc1C(=O)N2 [EX32-B]
> 8.00 | – | Cc1cc2nc(n1)NCC1(CC1)COCC1(C(F)(F)F)CCN(CC1)c1cc(NS(=O)(=O)CCO)ccc1C(=O)N2 [EX43]
7.00 to 8.00 | – | [2H]C([2H])([2H])N1CCCOCC2(C(F)(F)F)CCN(CC2)c2cc(S(=O)(=O)NCCO)ccc2C(=O)Nc2cccc1n2 [EX70]
7.00 to 8.00 | – | CN1CCCCCC2(C(F)(F)F)CCN(CC2)c2cc(NS(=O)(=O)CCO)ccc2C(=O)Nc2ccnc1n2 [EX90]
6.00 to 7.00 | – | O=C1NCCOCC2(C(F)(F)F)CCN(CC2)c2cc(NS(=O)(=O)CCO)ccc2C(=O)Nc2cccc1n2 [EX49]
7.00 to 8.00 | – | [2H]C([2H])([2H])N1CCCOCC2(C(F)(F)F)CCN(CC2)c2cc(NS(=O)(=O)CCO)ccc2C(=O)Nc2ccc(F)c1n2 [EX61]
7.00 to 8.00 | – | Cc1cc2nc(n1)NCC(F)(F)COCC1(C)CCN(CC1)c1cc(NS(=O)(=O)CCO)ccc1C(=O)N2 [EX28]
5.00 to 6.00 | – | [2H]C([2H])([2H])N1CCCCOCC2(C(F)(F)F)CCN(CC2)c2cc(NS(=O)(=O)CCO)ccc2C(=O)Nc2cc(C)nc1n2 [EX47]
6.00 to 7.00 | – | O=C1Nc2ccc(=O)n(n2)CCCCCC2(C(F)(F)F)CCN(CC2)c2cc(NS(=O)(=O)CCO)ccc21 [EX65]
7.00 to 8.00 | – | Cc1cc2nc(n1)N1CCO[C@@H](COCC3(C(F)(F)F)CCN(CC3)c3cc(NS(=O)(=O)CCO)ccc3C(=O)N2)C1 (stereo in doubt) [EX96-B]
5.00 to 6.00 | – | Cc1cc2nc(n1)NC/C=C/COCC1(C(F)(F)F)CCP(=O)(CC1)c1cc(NS(=O)(=O)CCO)ccc1C(=O)N2 [EX52]
7.00 to 8.00 | – | CN1CCCOCC2(C(F)F)CCN(CC2)c2cc(NS(=O)(=O)CCO)ccc2C(=O)Nc2cccc1n2 [EX110]
6.00 to 7.00 | – | Cc1cc2nc(n1)N1CCC(F)(F)[C@H](CCCC3(C)CCN(CC3)c3cc(NS(=O)(=O)CCO)ccc3C(=O)N2)C1 [EX115-A]
> 8.00 | – | CCS(=O)(=O)Nc1ccc2c(c1)N1CCC(C(F)(F)F)(CC1)COC[C@H](C)CNc1cccc(n1)NC2=O [EX88-B]
7.00 to 8.00 | – | O=C1Nc2cccc(n2)NCCC/C=C/C2(C(F)(F)F)CCN(CC2)c2cc(NS(=O)(=O)CCO)ccc21 [EX83]
> 8.00 | – | C[C@H]1CCCC2(C(F)F)CCN(CC2)c2cc(NS(=O)(=O)CCO)ccc2C(=O)Nc2cccc(n2)NC1 [EX102-B]
7.00 to 8.00 | – | C[C@H]1CCOCC2(C(F)(F)F)CCN(CC2)c2cc(NS(=O)(=O)CCO)ccc2C(=O)Nc2cccc(n2)N1 [EX107-B]

pIC50 (Homo sapiens, OVCAR-3, 144 h) | pIC50 | Structure (SMILES)
7.00 to 8.00 | – | O=C1Nc2cccc(n2)N(C2CC2)CCCOCC2(C(F)(F)F)CCN(CC2)c2cc(NS(=O)(=O)CCO)ccc21 [EX71]
6.00 to 7.00 | – | C/C1=C/CNc2cccc(n2)NC(=O)c2ccc(NS(=O)(=O)CCO)cc2N2CCC(C(F)(F)F)(CC2)COC1 [EX77]
6.00 to 7.00 | – | Cc1cc2nc(n1)NCCCOCC1(C)CCN(CC1)c1nc(NC(C)(C)CO)ccc1C(=O)N2 [EX29]
7.00 to 8.00 | – | C[C@H]1COCC2(C(F)(F)F)CCN(CC2)c2cc(NS(=O)(=O)CCO)ccc2C(=O)Nc2cccc(n2)CO1 [EX84-A]
7.00 to 8.00 | – | Cc1cc2nc(n1)N1CCO[C@@H](CCCC3(C(F)(F)F)CCN(CC3)c3cc(NS(=O)(=O)CCO)ccc3C(=O)N2)C1 [EX111-B]
7.00 to 8.00 | – | C[C@@H]1CCCC2(C(F)(F)F)CCN(CC2)c2cc(NS(=O)(=O)CCO)ccc2C(=O)Nc2cccc(n2)NC1 [EX79-A]
6.00 to 7.00 | – | C[C@@H]1CCOCC2(C(F)(F)F)CCN(CC2)c2cc(NS(=O)(=O)CCO)ccc2C(=O)Nc2cccc(n2)N1 [EX107-A]
7.00 to 8.00 | – | C[C@@H]1CCCC2(C(F)(F)F)CCN(CC2)c2cc(NS(=O)(=O)CCO)ncc2C(=O)Nc2cccc(n2)NC1 [EX100-A]
7.00 to 8.00 | – | CCS(=O)(=O)Nc1ccc2c(c1)N1CCC(C(F)(F)F)(CC1)COC[C@@H](C)CNc1cccc(n1)NC2=O [EX88-A]
6.00 to 7.00 | – | Cc1cc2nc(n1)N(C)CCCOCC1(C3CC3)CCN(CC1)c1cc(NS(=O)(=O)CCO)ccc1C(=O)N2 [EX41]
7.00 to 8.00 | – | Cc1cc2nc(n1)NC1CC(C1)OCC1(C(F)(F)F)CCN(CC1)c1cc(NS(=O)(=O)CCO)ccc1C(=O)N2 [EX53]
6.00 to 7.00 | – | CCS(=O)(=O)Nc1cc2c(cn1)C(=O)Nc1cccc(n1)N(C)CCCCCC1(C(F)(F)F)CCN2CC1 [EX98]
7.00 to 8.00 | – | C[C@@H]1COCC2(C(F)(F)F)CCN(CC2)c2cc(NS(=O)(=O)CCO)ccc2C(=O)Nc2cccc(n2)CO1 [EX84-B]
7.00 to 8.00 | – | [2H]C([2H])([2H])N1CCCOCC2(C(F)(F)F)CCN(CC2)c2cc(NS(=O)(=O)CCO)ccc2C(=O)Nc2cc(C)nc1n2 [EX44]
5.00 to 6.00 | – | CN1CCCOCC2(C(F)(F)F)CCN(CC2)c2cc(NS(=O)(=O)CCO)ccc2C(=O)Nc2nccc1n2 [EX87]
5.00 to 6.00 | – | CN1CCC2(C(F)(F)F)CCN(CC2)c2cc(NS(=O)(=O)CCO)ccc2C(=O)Nc2cccc(n2)NCC1=O [EX80]
7.00 to 8.00 | – | O=C1Nc2ccnc(n2)N2CCO[C@@H](COCC3(C(F)(F)F)CCN(CC3)c3cc(NS(=O)(=O)CCO)ccc31)C2 [EX93-B]
7.00 to 8.00 | – | Cc1cc2nc(n1)NCC(C)COCC1(C#N)CCN(CC1)c1cc(NS(=O)(=O)CCO)ccc1C(=O)N2 (centres unmarked) [EX42]

Source: patent publication US20250340569A1, “INHIBITORS OF KIF18A AND USES THEREOF” (Insilico Medicine IP Limited, priority 2023, published 2025)
